# Assay results reported in patent US11572590B2, “Methods for evaluating tumor cell spheroids using 3D microfluidic cell culture device” (Dana-Farber Cancer Institute, Inc., priority 2017, dated 2023).
# Read-outs that look alike come from different tables or passages of the source.
# Legend:
# off-target kinases [1] = target: T1, off-target kinases (Homo sapiens, UniProt Q99683); experiment: SelectScreen Kinase Profiling, single point inhibition and IC50 for off-target kinases; assay type: biochemical; conditions: MAP3K5 (ASK1), LanthaScreen Binding
# T1 sequence (Q99683 1-1374): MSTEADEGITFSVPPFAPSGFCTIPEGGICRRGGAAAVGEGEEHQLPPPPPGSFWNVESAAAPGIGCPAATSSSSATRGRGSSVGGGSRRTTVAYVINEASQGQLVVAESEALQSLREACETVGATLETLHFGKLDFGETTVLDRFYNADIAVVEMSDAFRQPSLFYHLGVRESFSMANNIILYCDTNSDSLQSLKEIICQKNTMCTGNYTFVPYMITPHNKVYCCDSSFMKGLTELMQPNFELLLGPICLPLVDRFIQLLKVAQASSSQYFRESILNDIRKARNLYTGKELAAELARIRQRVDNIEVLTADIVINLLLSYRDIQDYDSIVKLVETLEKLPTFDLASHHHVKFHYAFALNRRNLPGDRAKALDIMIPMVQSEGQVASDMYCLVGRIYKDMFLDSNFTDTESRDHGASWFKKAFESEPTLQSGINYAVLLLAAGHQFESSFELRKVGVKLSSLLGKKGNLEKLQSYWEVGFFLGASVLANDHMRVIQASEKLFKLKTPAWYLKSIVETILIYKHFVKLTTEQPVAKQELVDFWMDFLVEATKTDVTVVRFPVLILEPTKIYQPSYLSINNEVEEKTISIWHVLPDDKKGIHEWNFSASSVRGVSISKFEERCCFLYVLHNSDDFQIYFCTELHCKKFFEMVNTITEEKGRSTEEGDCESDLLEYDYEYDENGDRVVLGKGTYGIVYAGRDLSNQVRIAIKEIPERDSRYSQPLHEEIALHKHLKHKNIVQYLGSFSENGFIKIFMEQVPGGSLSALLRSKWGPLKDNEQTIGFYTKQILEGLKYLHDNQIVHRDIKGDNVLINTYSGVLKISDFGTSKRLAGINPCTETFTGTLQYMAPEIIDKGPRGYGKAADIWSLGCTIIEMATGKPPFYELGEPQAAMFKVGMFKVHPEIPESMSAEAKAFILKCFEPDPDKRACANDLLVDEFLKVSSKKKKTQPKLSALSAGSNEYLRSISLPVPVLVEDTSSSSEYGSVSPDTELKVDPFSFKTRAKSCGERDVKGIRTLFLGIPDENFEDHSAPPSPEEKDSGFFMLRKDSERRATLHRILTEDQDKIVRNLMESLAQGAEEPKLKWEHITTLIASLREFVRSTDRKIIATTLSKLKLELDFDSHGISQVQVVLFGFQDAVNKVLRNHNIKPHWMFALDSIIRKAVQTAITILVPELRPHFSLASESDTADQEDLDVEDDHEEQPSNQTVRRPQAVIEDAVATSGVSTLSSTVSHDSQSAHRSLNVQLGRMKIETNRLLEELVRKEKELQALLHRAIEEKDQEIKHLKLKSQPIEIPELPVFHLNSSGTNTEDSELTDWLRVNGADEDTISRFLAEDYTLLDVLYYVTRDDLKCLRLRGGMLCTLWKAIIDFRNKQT
# off-target kinases [2] = target: T2, off-target kinases (Homo sapiens, UniProt Q92630); experiment: as above; assay type: biochemical; conditions: DYRK2, LanthaScreen Binding
# T2 sequence (Q92630 1-601): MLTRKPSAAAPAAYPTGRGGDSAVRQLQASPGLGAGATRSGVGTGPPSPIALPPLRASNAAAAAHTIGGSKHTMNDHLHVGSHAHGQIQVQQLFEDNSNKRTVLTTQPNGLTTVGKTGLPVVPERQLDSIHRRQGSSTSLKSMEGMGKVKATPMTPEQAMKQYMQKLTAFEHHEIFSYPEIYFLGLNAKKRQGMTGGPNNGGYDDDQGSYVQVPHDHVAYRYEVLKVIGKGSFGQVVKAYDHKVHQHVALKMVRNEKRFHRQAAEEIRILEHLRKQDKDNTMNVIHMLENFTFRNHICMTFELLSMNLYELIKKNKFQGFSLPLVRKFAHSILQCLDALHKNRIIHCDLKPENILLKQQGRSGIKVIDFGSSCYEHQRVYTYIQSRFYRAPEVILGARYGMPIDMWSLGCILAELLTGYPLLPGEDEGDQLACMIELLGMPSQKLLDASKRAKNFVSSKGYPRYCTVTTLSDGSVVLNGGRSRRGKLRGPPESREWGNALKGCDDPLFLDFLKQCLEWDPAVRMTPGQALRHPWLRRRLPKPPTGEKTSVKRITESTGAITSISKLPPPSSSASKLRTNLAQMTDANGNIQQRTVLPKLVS
compound,measurement,setting,value
"N#Cc1cc(-c2ncnc(Nc3ccc(N4CCN(C5COC5)CC4)cc3)n2)ccc1OC1CCOCC1 [Compound 1, 5-(4-((4-(4-(oxetan-3-yl)piperazin-1-yl)phenyl)amino)-1,3,5-triazin-2-yl)-2-((tetrahydro-2H-pyran-4-yl)oxy)benzonitrile]",inhibition,off-target kinases [1]; read-out: % Inhibition 1,7%
same,inhibition,off-target kinases [1]; read-out: % Inhibition 2,8%
same,inhibition,off-target kinases [1]; read-out: % Inhibition Avg,7%
same,inhibition,off-target kinases [2]; read-out: % Inhibition 1,54%
same,inhibition,off-target kinases [2]; read-out: % Inhibition 2,53%
same,inhibition,off-target kinases [2]; read-out: % Inhibition Avg,54%
